From US10676504B2 (Colorado State University Research Foundation, priority 2015, dated 2020)
Like-named read-outs stand apart in the source and are kept apart here. Each block holds one molecule with its values, some of them ahead of it.

Columns and labels:
[1] = target: T1, HDAC3 (Homo sapiens, UniProt O15379); assay: HDAC biochemical assay of O10-O12 (Table O1)
T1 construct: The recombinant, full-length HDAC protein (BPS Biosciences) was incubated; purchased BPS Biosciences

[2] = target: T2, HDAC1 (Homo sapiens, UniProt Q13547); conditions: read-out: HDAC1 IC50; Table O1
T2 sequence (Q13547 whole entry): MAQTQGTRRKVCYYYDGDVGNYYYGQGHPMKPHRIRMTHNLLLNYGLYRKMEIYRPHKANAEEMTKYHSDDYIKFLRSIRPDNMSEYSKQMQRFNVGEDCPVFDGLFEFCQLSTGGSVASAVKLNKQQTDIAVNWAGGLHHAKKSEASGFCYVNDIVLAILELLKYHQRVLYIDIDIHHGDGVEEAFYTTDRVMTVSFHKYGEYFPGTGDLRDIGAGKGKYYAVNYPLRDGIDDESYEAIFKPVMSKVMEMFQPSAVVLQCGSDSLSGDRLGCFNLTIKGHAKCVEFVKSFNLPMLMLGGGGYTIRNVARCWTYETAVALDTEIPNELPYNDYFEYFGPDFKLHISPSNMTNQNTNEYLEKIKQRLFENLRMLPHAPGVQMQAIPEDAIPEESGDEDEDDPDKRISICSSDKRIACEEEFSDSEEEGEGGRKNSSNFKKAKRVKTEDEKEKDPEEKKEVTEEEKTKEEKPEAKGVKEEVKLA

[3] = target: T3, HDAC6 (Homo sapiens, UniProt Q9UBN7); conditions: read-out: HDAC6 IC50; Table O1; 200 μM TCEP
T3 sequence (Q9UBN7 1-1215): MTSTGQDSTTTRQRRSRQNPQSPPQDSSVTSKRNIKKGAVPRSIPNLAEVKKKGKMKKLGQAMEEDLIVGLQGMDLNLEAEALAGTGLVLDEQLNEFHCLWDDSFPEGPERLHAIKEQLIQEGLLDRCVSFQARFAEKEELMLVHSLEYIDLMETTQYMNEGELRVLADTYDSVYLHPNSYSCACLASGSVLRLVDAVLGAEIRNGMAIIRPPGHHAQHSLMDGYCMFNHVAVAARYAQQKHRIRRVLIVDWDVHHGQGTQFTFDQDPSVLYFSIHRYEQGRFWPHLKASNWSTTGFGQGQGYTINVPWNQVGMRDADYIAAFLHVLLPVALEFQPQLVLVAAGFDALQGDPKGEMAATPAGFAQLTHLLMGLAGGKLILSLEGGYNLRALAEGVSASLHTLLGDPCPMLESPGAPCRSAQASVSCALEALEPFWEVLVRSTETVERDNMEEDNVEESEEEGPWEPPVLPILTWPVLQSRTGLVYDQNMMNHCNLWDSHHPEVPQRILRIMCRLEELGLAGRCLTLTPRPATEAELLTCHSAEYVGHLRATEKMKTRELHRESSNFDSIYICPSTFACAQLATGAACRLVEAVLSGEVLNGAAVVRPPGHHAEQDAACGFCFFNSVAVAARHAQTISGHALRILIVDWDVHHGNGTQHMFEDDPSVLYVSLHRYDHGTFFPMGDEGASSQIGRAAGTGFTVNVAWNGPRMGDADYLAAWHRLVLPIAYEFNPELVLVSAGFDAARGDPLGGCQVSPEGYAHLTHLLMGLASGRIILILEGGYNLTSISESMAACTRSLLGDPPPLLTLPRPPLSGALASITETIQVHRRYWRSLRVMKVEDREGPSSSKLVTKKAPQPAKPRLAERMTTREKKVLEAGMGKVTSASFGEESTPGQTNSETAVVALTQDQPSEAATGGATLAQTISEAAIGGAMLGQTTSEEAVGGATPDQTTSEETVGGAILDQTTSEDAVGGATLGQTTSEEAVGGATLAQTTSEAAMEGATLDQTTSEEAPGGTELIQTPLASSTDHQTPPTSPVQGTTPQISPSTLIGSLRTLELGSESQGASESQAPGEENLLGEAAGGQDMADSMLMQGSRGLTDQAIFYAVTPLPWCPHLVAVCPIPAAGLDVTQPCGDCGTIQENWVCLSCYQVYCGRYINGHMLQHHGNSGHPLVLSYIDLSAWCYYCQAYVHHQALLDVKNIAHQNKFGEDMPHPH

[4] = target: HDAC7 (Homo sapiens, UniProt Q8WUI4); conditions: read-out: HDAC7 IC50; Table O1
Sequence of HDAC7 (Q8WUI4 518-952 limits assumed): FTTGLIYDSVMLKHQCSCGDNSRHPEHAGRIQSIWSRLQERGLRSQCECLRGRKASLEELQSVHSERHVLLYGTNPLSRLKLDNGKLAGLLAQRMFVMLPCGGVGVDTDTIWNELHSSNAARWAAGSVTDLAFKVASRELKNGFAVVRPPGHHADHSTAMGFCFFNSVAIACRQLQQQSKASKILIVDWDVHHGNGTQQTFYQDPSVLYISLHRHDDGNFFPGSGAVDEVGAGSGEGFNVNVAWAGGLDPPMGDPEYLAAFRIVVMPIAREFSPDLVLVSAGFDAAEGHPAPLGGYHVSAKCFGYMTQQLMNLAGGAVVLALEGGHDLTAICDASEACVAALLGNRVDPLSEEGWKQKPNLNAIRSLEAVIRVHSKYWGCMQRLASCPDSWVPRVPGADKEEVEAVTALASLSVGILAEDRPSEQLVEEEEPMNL

[5] = target: T4, HDAC8 (Homo sapiens, UniProt Q9BY41); conditions: read-out: HDAC8 IC50; Table O1
T4 sequence (Q9BY41 1-377): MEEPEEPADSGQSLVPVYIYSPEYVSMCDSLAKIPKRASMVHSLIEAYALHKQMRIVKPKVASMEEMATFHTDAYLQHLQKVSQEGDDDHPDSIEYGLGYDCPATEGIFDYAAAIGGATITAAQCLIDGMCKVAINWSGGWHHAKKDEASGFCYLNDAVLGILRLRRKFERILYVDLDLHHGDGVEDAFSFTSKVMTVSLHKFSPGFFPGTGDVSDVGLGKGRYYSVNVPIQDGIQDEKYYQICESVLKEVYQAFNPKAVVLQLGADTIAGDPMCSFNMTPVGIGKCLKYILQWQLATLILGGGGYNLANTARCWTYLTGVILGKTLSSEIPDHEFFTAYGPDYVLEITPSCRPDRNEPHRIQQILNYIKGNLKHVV

[6] = target: T5, HDAC2 (Homo sapiens, UniProt Q92769); assay: HDAC biochemical assay of O10-O12 (Table O1); set-up: The recombinant, full-length HDAC protein (BPS Biosciences) was incubated; purchased BPS Biosciences
T5 sequence (Q92769 whole entry): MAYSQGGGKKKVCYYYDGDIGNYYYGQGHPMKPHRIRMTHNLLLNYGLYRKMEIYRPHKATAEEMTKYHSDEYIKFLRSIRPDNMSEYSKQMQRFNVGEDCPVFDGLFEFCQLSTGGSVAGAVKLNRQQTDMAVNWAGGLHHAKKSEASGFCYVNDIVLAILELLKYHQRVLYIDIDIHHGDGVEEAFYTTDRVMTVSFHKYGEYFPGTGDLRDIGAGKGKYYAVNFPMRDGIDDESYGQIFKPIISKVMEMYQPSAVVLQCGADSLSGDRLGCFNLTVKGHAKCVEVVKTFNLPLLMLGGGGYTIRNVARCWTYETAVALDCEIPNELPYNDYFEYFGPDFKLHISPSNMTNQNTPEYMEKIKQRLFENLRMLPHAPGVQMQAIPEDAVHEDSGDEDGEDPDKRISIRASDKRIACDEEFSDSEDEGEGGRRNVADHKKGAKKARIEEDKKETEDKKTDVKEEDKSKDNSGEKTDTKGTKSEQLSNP

[7] = system: human malignant melanoma cell lines; assay: melanoma cell viability, ATP content (Cell TiterGlo); type: cell-based; conditions: range over panel of melanoma cell lines, FIG. 4, read-out: IC50 melanoma cell proliferation
[8] = system: HDACs 1-3; assay: HDAC biochemical assay of P5-P12, summary statements
[9] = target: T2, HDAC1; conditions: read-out: HDAC inhibitory activity (Ki) HDAC1; Table 2
From the text: (§1) To measure the inhibitory effect on deacetylase function in vitro, a continuous kinetic biochemical assay miniaturized to 384-well plate format was optimized.
(§2) Fluorescence measurements were obtained in real-time on a Varioskan microtiter plate reader (Thermo).

[10] = system: NCI-60 cancer cell lines; conditions: five-dose
From the text: (§3) All compounds submitted for screening were initially tested at a single high dose (10^-5 M) against the fill NCI 60 cell panel. Only compounds which satisfied pre-determined threshold inhibition criteria in a minimum number of cell lines progressed to a second round of testing utilizing a more comprehensive 5-dose inhibition assay. The threshold inhibition criteria for progression to the 5-dose assays were selected to efficiently capture compounds with anti-proliferative activity based on historical DTP screening data.
(§4) Concentrations for G150, IC50, TGI, and LC50 were calculated for all cell lines tested, and heat plots were prepared.

[11] = system: melanoma cell lines; conditions: five-dose
From the text: as §3, §4

[12] = system: renal cancer cell lines; conditions: five-dose
From the text: as §3, §4

[13] = system: NCI-60 cancer cell lines; assay: cells
From the text: as §3, §4

[14] = system: melanoma cell lines; assay: cells; conditions: read-out: Average Concentration (M), LC50, Melanoma
From the text: as §3, §4

[15] = target: T5, HDAC2; type: biochemical; set-up: The recombinant, full-length HDAC protein (BPS Biosciences) was incubated; purchased BPS Biosciences; conditions: read-out: HDAC inhibitory activity (Ki) HDAC2
From the text: as §1, §2

[16] = target: T2, HDAC1; assay: HDAC biochemical assay of P5-P12 (Table P1); set-up: The recombinant, full-length HDAC protein (BPS Biosciences) was incubated; purchased BPS Biosciences
[17] = target: T5, HDAC2; assay: HDAC biochemical assay of P5-P12 (Table P1); set-up: The recombinant, full-length HDAC protein (BPS Biosciences) was incubated; purchased BPS Biosciences
[18] = target: T4, HDAC8; assay: HDAC biochemical assay of P5-P12 (Table P1); set-up: The recombinant, full-length HDAC protein (BPS Biosciences) was incubated; purchased BPS Biosciences
[19] = target: T6, HDAC3/NCor2 (Homo sapiens, UniProt O15379); assay: HDAC biochemical assay (Example 16)
T6 construct: recombinant, full-length HDAC protein; purchased BPS Biosciences
T6 sequence (O15379 whole entry): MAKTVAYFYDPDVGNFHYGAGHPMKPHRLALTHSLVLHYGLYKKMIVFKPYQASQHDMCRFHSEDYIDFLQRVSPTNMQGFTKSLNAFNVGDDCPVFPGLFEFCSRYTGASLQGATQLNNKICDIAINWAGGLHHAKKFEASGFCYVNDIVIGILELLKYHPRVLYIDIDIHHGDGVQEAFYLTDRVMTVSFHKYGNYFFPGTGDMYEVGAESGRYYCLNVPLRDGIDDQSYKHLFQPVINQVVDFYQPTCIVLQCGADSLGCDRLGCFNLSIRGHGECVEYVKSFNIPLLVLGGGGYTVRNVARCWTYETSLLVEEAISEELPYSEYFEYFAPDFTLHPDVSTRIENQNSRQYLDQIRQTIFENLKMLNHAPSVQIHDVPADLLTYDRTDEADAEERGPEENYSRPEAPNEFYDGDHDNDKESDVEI
T6 sequence (Q9Y618 395-489 partner limits assumed): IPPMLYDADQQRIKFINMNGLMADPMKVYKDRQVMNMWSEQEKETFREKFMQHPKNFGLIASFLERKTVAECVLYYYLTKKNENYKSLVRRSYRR
Procedure: (§5) Thus, small-molecule inhibitors were arrayed at twelve-point dose-response (3-fold increments) in 384-well library plates and transferred by robotic pin device to replicate assay plates containing assay buffer under reducing conditions (TCEP 200 μM). A liquid handling device then transferred a tripeptide substrate terminating in acetyl-lysine and amide conjugated to 4-methyl-7-aminocoumarin (AMC), recombinant human histone deacetylase (BPS Bioscience, San Diego, Calif.), and recombinant human trypsin (Sigma-Aldrich, St. Louis, Mo.). Following deacetylase hydrolysis of acetyl-lysine, trypsin cleavage liberated the AMC fluorophore. Kinetic (fluorescence per unit time) and end-point (total fluorescence) data were captured by a multilabel plate reader. Replicate data were analyzed by curve-fit using logistic regression (Spotfire Decision-Site).

[20] = target: T2, HDAC1; assay: HDAC biochemical assay (Example 16); set-up: recombinant, full-length HDAC protein; purchased BPS Biosciences; conditions: Table 4; reducing conditions (TCEP 200 μM)
Procedure: as §5

[21] = target: T5, HDAC2; assay: HDAC biochemical assay (Example 16); set-up: recombinant, full-length HDAC protein; purchased BPS Biosciences; conditions: Table 4; reducing conditions (TCEP 200 μM)
Procedure: as §5

[22] = target: T3, HDAC6; assay: HDAC biochemical assay (Example 16); set-up: recombinant, full-length HDAC protein; purchased BPS Biosciences; conditions: Table 4; reducing conditions (TCEP 200 μM)
Procedure: as §5

[23] = target: T5, HDAC2; assay: HDAC2 inhibition, trypsin-coupled kinetic fluorescence homogeneous assay (Example 10); type: biochemical; set-up: The recombinant, full-length HDAC protein (BPS Biosciences) was incubated; purchased BPS Biosciences; conditions: Conc (uM); logistic curve fit of activity versus concentration; some fits reached max iterations; read-out: X50
Procedure: as §1, §2
A biochemical study of HDAC2 inhibition was carried out using the trypsin-coupled, kinetic fluorescence homogeneous assay described above.

[24] = system: human HDACs; assay: HDAC biochemical assay (Example 16), summary statements over isoforms
Procedure: The inhibitory effect of compounds on deacetylase isoenzyme function was determined in vitro using an optimized homogenous assay performed in 384-well plate format. […] Data are analyzed on a plate-by-plate basis for the linear range of fluorescence over time. Data from the plate capture corresponding to the mid-linear range is imported into analytical software and annotated with well identity and compound concentration (Spotfire DecisionSite). Replicate experimental data from incubations with inhibitor are normalized to control, solvent-only wells and IC-50 is determined by logistic regression.
Thus, small-molecule inhibitors were arrayed at twelve-point dose-response (3-fold increments) in 384-well library plates and transferred by robotic pin device to replicate assay plates containing assay buffer under reducing conditions (TCEP 200 μM). A liquid handling device then transferred a tripeptide substrate terminating in acetyl-lysine and amide conjugated to 4-methyl-7-aminocoumarin (AMC), recombinant human histone deacetylase (BPS Bioscience, San Diego, Calif.), and recombinant human trypsin (Sigma-Aldrich, St. Louis, Mo.). […] Kinetic (fluorescence per unit time) and end-point (total fluorescence) data were captured by a multilabel plate reader. Replicate data were analyzed by curve-fit using logistic regression (Spotfire Decision-Site). […]

T1 sequence (O15379 whole entry): as the sequence (O15379 whole entry) above
T1 sequence (Q9Y618 395-489 partner limits assumed): as the sequence (Q9Y618 395-489 partner limits assumed) above

Structure (SMILES): CC(C)[C@@H]1NC(=O)[C@]2(C)CSC(=N2)c2coc(n2)CNC(=O)C[C@@H](/C=C/CCS)OC1=O [Compound O11, Thiazoline-Oxazole Thiol Analog]
IC50 [1]: 7.2 nM | IC50 [2]: 4.4 nM | IC50 [3]: 98 nM | IC50 [4]: 960 nM | IC50 [5]: 1200 nM | IC50 [6]: 20 nM

Structure (SMILES): CCCCCCCC(=O)SCCC=CC1CC(=O)NCc2nc(co2)C2=NC(C)(CS2)C(=O)NC(C(C)C)C(=O)O1 (stereo not drawn) [Compound O12, Thiazoline-Oxazole Thioester Analog]
IC50 [1]: 1900 nM | IC50 [2]: 950 nM | IC50 [3]: 1100 nM | IC50 [6]: 2100 nM

Structure (SMILES): CCCCCCCC(=O)SCC/C=C/[C@@H]1CC(=O)NCc2nc(cs2)C2=N[C@@](C)(CS2)C(=O)N[C@@H](C(C)C)C(=O)O1 [Largazole, largazole, reference compound]
IC50 [7]: 45 to 315 nM | IC50 range in words for HDACs 1-3 [8]: high nM-μM range | Ki [9]: 20 nM | IC50 [2]: 230 nM | Percent of Cell Lines Impacted (%), GI50 ([10]; 50% Growth Inhibition): 100% | Percent of Cell Lines Impacted (%), LC50 ([10]; 50% Lethal Concentration reached): 7% | Percent of Cell Lines Impacted (%), TGI ([10]; Total Growth Inhibition): 58% | Total Impacted Cell Lines (n), TGI ([10]; Total Growth Inhibition): 34 | Percent of Cell Lines Impacted (%), LC50, Melanoma [11]: 33% | Percent of Cell Lines Impacted (%), LC50, Renal [12]: 14% | GI50 ([13]; read-out: Average Concentration (M), GI50): 2.1e-06 M | GI50 ([13]; read-out: GI50 concentrations (M), order of magnitude): 1e-06 M | CC50 [14]: 3.55e-06 M | Ki [15]: 21 nM | IC50 [6]: 900 nM | IC50 [16]: 10.1 nM | IC50 [17]: 18.6 nM | IC50 [18]: 1070 nM

Structure (SMILES): CC(C)C1NC(=O)C2(C)COC(=N2)c2coc(n2)CNC(=O)CC(C=CCCSSCCC=CC2CC(=O)NCc3nc(co3)C3=NC(C)(CO3)C(=O)NC(C(C)C)C(=O)O2)OC1=O (stereo not drawn) [Oxazoline-oxazole (39b), Disulfide Dimer 39b]
IC50 [19]: 1.5 nM | IC50 [20]: 0.69 nM | IC50 [21]: 1.7 nM

IC50 ([19]; Table 4, reducing conditions (TCEP 200 μM)): 580 nM | IC50 [20]: 110 nM | IC50 [21]: 800 nM | IC50 [22]: 13000 nM | IC50 [23]: 0.773 µM
Structure (SMILES): C[C@@]12CSC(=N1)c1csc(n1)CNC(=O)C[C@@H](/C=C/CCS)OC(=O)[C@@H]1CCCN1C2=O [Proline substitution (4)]

Structure (SMILES): CC(C)[C@@H]1NC(=O)[C@]2(C)CSC(=N2)c2cccc(n2)CNC(=O)C[C@@H](/C=C/CCS)OC1=O [Thiazole-pyridine substitution (29b)]
IC50 [19]: 1.1 nM | activity against Class I HDACs [24]: sub-nanomolar | IC50 [22]: 29 nM
